# Test results reported in the supplement of paper PMC10307832.
# Experiments:
# Experiment in all cases: relative viability (nuclei count vs DMSO), 5 days (fraction); higher = more cells survive
# BGJ398 + Vorinostat = compound: CCN1CCN(c2ccc(Nc3cc(N(C)C(=O)Nc4c(Cl)c(OC)cc(OC)c4Cl)ncn3)cc2)CC1 [BGJ398] + O=C(CCCCCCC(=O)Nc1ccccc1)NO [Vorinostat] (partner 1 µM)
# In short: (§1)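 Lung cancer cell lines, seeded in 1536-well plates, were treated the following day by pin tool with a single drug or with five library-drug doses (not always all listed) in √10 steps on top of a fixed anchor-drug dose. Cells were fixed and nuclei stained in one step after 5 days, and nuclei were counted. Relative viability is the nuclei count for treated wells divided by that for vehicle wells, reported as medians of duplicate plates.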
# BGJ398 + Trametinib = compound: CCN1CCN(c2ccc(Nc3cc(N(C)C(=O)Nc4c(Cl)c(OC)cc(OC)c4Cl)ncn3)cc2)CC1 [BGJ398] + CC(=O)Nc1cccc(-n2c(=O)n(C3CC3)c(=O)c3c(Nc4ccc(I)cc4F)n(C)c(=O)c(C)c32)c1 [Trametinib] (partner 0.02 µM)
# In short: as §1
# BGJ398 + Pictilisib = compound: CCN1CCN(c2ccc(Nc3cc(N(C)C(=O)Nc4c(Cl)c(OC)cc(OC)c4Cl)ncn3)cc2)CC1 [BGJ398] + CS(=O)(=O)N1CCN(Cc2cc3nc(-c4cccc5[nH]ncc45)nc(N4CCOCC4)c3s2)CC1 [Pictilisib] (partner 1 µM)
# In short: as §1
# [1] = compound: C1=CC2=NC=CN=C2C=C1/C=C/3\C(=O)NC(=O)S3 + N=C(N)NC(=N)NCCc1ccccc1 [Phenformin] (partner 250 µM)
# In short: as §1
cell line,measurement,setting,value
NCI-H2009,relative viability,BGJ398 + Vorinostat; first compound 0.01 µM,0.714
same,relative viability,BGJ398 + Vorinostat; first compound 0.03162 µM,0.729
same,relative viability,BGJ398 + Vorinostat; first compound 0.1 µM,0.74
same,relative viability,BGJ398 + Vorinostat; first compound 0.3162 µM,0.687
same,relative viability,BGJ398 + Vorinostat; first compound 1 µM,0.692
same,relative viability,BGJ398 + Trametinib; first compound 0.01 µM,0.261
same,relative viability,BGJ398 + Trametinib; first compound 0.03162 µM,0.265
same,relative viability,BGJ398 + Trametinib; first compound 0.1 µM,0.219
same,relative viability,BGJ398 + Trametinib; first compound 0.3162 µM,0.23
same,relative viability,BGJ398 + Trametinib; first compound 1 µM,0.244
same,relative viability,BGJ398 + Pictilisib; first compound 0.01 µM,0.803
same,relative viability,BGJ398 + Pictilisib; first compound 0.03162 µM,0.955
same,relative viability,BGJ398 + Pictilisib; first compound 0.1 µM,0.731
same,relative viability,BGJ398 + Pictilisib; first compound 0.3162 µM,0.842
same,relative viability,BGJ398 + Pictilisib; first compound 1 µM,0.847
same,relative viability,[1]; first compound 0.02 µM,0.507
same,relative viability,[1]; first compound 0.06325 µM,0.454
same,relative viability,[1]; first compound 0.2 µM,0.508
same,relative viability,[1]; first compound 0.6325 µM,0.482
same,relative viability,[1]; first compound 2 µM,0.461
NCI-H2023,relative viability,BGJ398 + Vorinostat; first compound 0.01 µM,0.673
same,relative viability,BGJ398 + Vorinostat; first compound 0.03162 µM,0.683
same,relative viability,BGJ398 + Vorinostat; first compound 0.1 µM,0.715
same,relative viability,BGJ398 + Vorinostat; first compound 0.3162 µM,0.664
same,relative viability,BGJ398 + Vorinostat; first compound 1 µM,0.54
same,relative viability,BGJ398 + Trametinib; first compound 0.01 µM,0.615
same,relative viability,BGJ398 + Trametinib; first compound 0.03162 µM,0.566
same,relative viability,BGJ398 + Trametinib; first compound 0.1 µM,0.473
same,relative viability,BGJ398 + Trametinib; first compound 0.3162 µM,0.522
same,relative viability,BGJ398 + Trametinib; first compound 1 µM,0.541
same,relative viability,BGJ398 + Pictilisib; first compound 0.01 µM,0.226
same,relative viability,BGJ398 + Pictilisib; first compound 0.03162 µM,0.219
same,relative viability,BGJ398 + Pictilisib; first compound 0.1 µM,0.173
same,relative viability,BGJ398 + Pictilisib; first compound 0.3162 µM,0.244
same,relative viability,BGJ398 + Pictilisib; first compound 1 µM,0.16
same,relative viability,[1]; first compound 0.02 µM,0.441
same,relative viability,[1]; first compound 0.06325 µM,0.452
same,relative viability,[1]; first compound 0.2 µM,0.438
same,relative viability,[1]; first compound 0.6325 µM,0.426
same,relative viability,[1]; first compound 2 µM,0.329
NCI-H2085,relative viability,BGJ398 + Vorinostat; first compound 0.01 µM,0.741
same,relative viability,BGJ398 + Vorinostat; first compound 0.03162 µM,0.751
same,relative viability,BGJ398 + Vorinostat; first compound 0.1 µM,0.863
same,relative viability,BGJ398 + Vorinostat; first compound 0.3162 µM,0.832
same,relative viability,BGJ398 + Vorinostat; first compound 1 µM,0.815
same,relative viability,BGJ398 + Trametinib; first compound 0.01 µM,0.498
same,relative viability,BGJ398 + Trametinib; first compound 0.03162 µM,0.525
same,relative viability,BGJ398 + Trametinib; first compound 0.1 µM,0.505
same,relative viability,BGJ398 + Trametinib; first compound 0.3162 µM,0.705
same,relative viability,BGJ398 + Trametinib; first compound 1 µM,0.502
same,relative viability,BGJ398 + Pictilisib; first compound 0.01 µM,0.456
same,relative viability,BGJ398 + Pictilisib; first compound 0.03162 µM,0.44
same,relative viability,BGJ398 + Pictilisib; first compound 0.1 µM,0.372
same,relative viability,BGJ398 + Pictilisib; first compound 0.3162 µM,0.508
same,relative viability,BGJ398 + Pictilisib; first compound 1 µM,0.394
same,relative viability,[1]; first compound 0.02 µM,0.747
same,relative viability,[1]; first compound 0.06325 µM,0.721
same,relative viability,[1]; first compound 0.2 µM,0.716
same,relative viability,[1]; first compound 0.6325 µM,0.671
same,relative viability,[1]; first compound 2 µM,0.65
NCI-H2087,relative viability,BGJ398 + Vorinostat; first compound 0.01 µM,0.552
same,relative viability,BGJ398 + Vorinostat; first compound 0.03162 µM,0.442
same,relative viability,BGJ398 + Vorinostat; first compound 0.1 µM,0.816
same,relative viability,BGJ398 + Vorinostat; first compound 0.3162 µM,0.679
same,relative viability,BGJ398 + Vorinostat; first compound 1 µM,0.657
same,relative viability,BGJ398 + Trametinib; first compound 0.01 µM,0.142
same,relative viability,BGJ398 + Trametinib; first compound 0.03162 µM,0.22
same,relative viability,BGJ398 + Trametinib; first compound 0.1 µM,0.188
same,relative viability,BGJ398 + Trametinib; first compound 0.3162 µM,0.197
same,relative viability,BGJ398 + Trametinib; first compound 1 µM,0.189
same,relative viability,BGJ398 + Pictilisib; first compound 0.01 µM,0.669
same,relative viability,BGJ398 + Pictilisib; first compound 0.03162 µM,0.994
same,relative viability,BGJ398 + Pictilisib; first compound 0.1 µM,0.966
same,relative viability,BGJ398 + Pictilisib; first compound 0.3162 µM,0.85
same,relative viability,BGJ398 + Pictilisib; first compound 1 µM,1.08
same,relative viability,[1]; first compound 0.02 µM,0.428
same,relative viability,[1]; first compound 0.06325 µM,0.33
same,relative viability,[1]; first compound 0.2 µM,0.42
same,relative viability,[1]; first compound 0.6325 µM,0.493
same,relative viability,[1]; first compound 2 µM,0.502
NCI-H2126,relative viability,BGJ398 + Vorinostat; first compound 0.01 µM,0.768
same,relative viability,BGJ398 + Vorinostat; first compound 0.03162 µM,0.787
same,relative viability,BGJ398 + Vorinostat; first compound 0.1 µM,0.861
same,relative viability,BGJ398 + Vorinostat; first compound 0.3162 µM,0.775
same,relative viability,BGJ398 + Vorinostat; first compound 1 µM,0.765
same,relative viability,BGJ398 + Trametinib; first compound 0.01 µM,0.609
same,relative viability,BGJ398 + Trametinib; first compound 0.03162 µM,0.531
same,relative viability,BGJ398 + Trametinib; first compound 0.1 µM,0.615
same,relative viability,BGJ398 + Trametinib; first compound 0.3162 µM,0.629
same,relative viability,BGJ398 + Trametinib; first compound 1 µM,0.567
same,relative viability,BGJ398 + Pictilisib; first compound 0.01 µM,0.528
same,relative viability,BGJ398 + Pictilisib; first compound 0.03162 µM,0.461
same,relative viability,BGJ398 + Pictilisib; first compound 0.1 µM,0.52
same,relative viability,BGJ398 + Pictilisib; first compound 0.3162 µM,0.495
same,relative viability,BGJ398 + Pictilisib; first compound 1 µM,0.418
same,relative viability,[1]; first compound 0.02 µM,0.503
same,relative viability,[1]; first compound 0.06325 µM,0.581
same,relative viability,[1]; first compound 0.2 µM,0.567
same,relative viability,[1]; first compound 0.6325 µM,0.534
same,relative viability,[1]; first compound 2 µM,0.339
NCI-H2170,relative viability,BGJ398 + Vorinostat; first compound 0.01 µM,0.823
same,relative viability,BGJ398 + Vorinostat; first compound 0.03162 µM,0.814
same,relative viability,BGJ398 + Vorinostat; first compound 0.1 µM,0.847
same,relative viability,BGJ398 + Vorinostat; first compound 0.3162 µM,0.821
same,relative viability,BGJ398 + Vorinostat; first compound 1 µM,0.861
same,relative viability,BGJ398 + Trametinib; first compound 0.01 µM,0.941
same,relative viability,BGJ398 + Trametinib; first compound 0.03162 µM,0.937
same,relative viability,BGJ398 + Trametinib; first compound 0.1 µM,1.02
same,relative viability,BGJ398 + Trametinib; first compound 0.3162 µM,0.91
same,relative viability,BGJ398 + Trametinib; first compound 1 µM,0.866
same,relative viability,BGJ398 + Pictilisib; first compound 0.01 µM,0.348
same,relative viability,BGJ398 + Pictilisib; first compound 0.03162 µM,0.279
same,relative viability,BGJ398 + Pictilisib; first compound 0.1 µM,0.311
same,relative viability,BGJ398 + Pictilisib; first compound 0.3162 µM,0.287
same,relative viability,BGJ398 + Pictilisib; first compound 1 µM,0.288
same,relative viability,[1]; first compound 0.02 µM,0.425
same,relative viability,[1]; first compound 0.06325 µM,0.375
same,relative viability,[1]; first compound 0.2 µM,0.441
same,relative viability,[1]; first compound 0.6325 µM,0.426
same,relative viability,[1]; first compound 2 µM,0.423
NCI-H2228,relative viability,BGJ398 + Vorinostat; first compound 0.01 µM,0.583
same,relative viability,BGJ398 + Vorinostat; first compound 0.03162 µM,0.761
same,relative viability,BGJ398 + Vorinostat; first compound 0.1 µM,0.706
same,relative viability,BGJ398 + Vorinostat; first compound 0.3162 µM,0.531
same,relative viability,BGJ398 + Vorinostat; first compound 1 µM,0.542
same,relative viability,BGJ398 + Trametinib; first compound 0.01 µM,0.42
same,relative viability,BGJ398 + Trametinib; first compound 0.03162 µM,0.694
same,relative viability,BGJ398 + Trametinib; first compound 0.1 µM,0.503
same,relative viability,BGJ398 + Trametinib; first compound 0.3162 µM,0.348
same,relative viability,BGJ398 + Trametinib; first compound 1 µM,0.419
same,relative viability,BGJ398 + Pictilisib; first compound 0.01 µM,0.342
same,relative viability,BGJ398 + Pictilisib; first compound 0.03162 µM,0.56
same,relative viability,BGJ398 + Pictilisib; first compound 0.1 µM,0.531
same,relative viability,BGJ398 + Pictilisib; first compound 0.3162 µM,0.484
same,relative viability,BGJ398 + Pictilisib; first compound 1 µM,0.365
same,relative viability,[1]; first compound 0.02 µM,0.281
same,relative viability,[1]; first compound 0.06325 µM,0.329
same,relative viability,[1]; first compound 0.2 µM,0.445
same,relative viability,[1]; first compound 0.6325 µM,0.361
same,relative viability,[1]; first compound 2 µM,0.213
NCI-H2347,relative viability,BGJ398 + Vorinostat; first compound 0.01 µM,0.63
same,relative viability,BGJ398 + Vorinostat; first compound 0.03162 µM,0.763
same,relative viability,BGJ398 + Vorinostat; first compound 0.1 µM,0.606
same,relative viability,BGJ398 + Vorinostat; first compound 0.3162 µM,0.55
same,relative viability,BGJ398 + Vorinostat; first compound 1 µM,0.608
same,relative viability,BGJ398 + Trametinib; first compound 0.01 µM,0.32
same,relative viability,BGJ398 + Trametinib; first compound 0.03162 µM,0.239
same,relative viability,BGJ398 + Trametinib; first compound 0.1 µM,0.275
same,relative viability,BGJ398 + Trametinib; first compound 0.3162 µM,0.309
same,relative viability,BGJ398 + Trametinib; first compound 1 µM,0.259
same,relative viability,BGJ398 + Pictilisib; first compound 0.01 µM,0.615
same,relative viability,BGJ398 + Pictilisib; first compound 0.03162 µM,0.964
same,relative viability,BGJ398 + Pictilisib; first compound 0.1 µM,0.591
same,relative viability,BGJ398 + Pictilisib; first compound 0.3162 µM,0.593
same,relative viability,BGJ398 + Pictilisib; first compound 1 µM,0.918
same,relative viability,[1]; first compound 0.02 µM,0.352
same,relative viability,[1]; first compound 0.06325 µM,0.322
same,relative viability,[1]; first compound 0.2 µM,0.422
same,relative viability,[1]; first compound 0.6325 µM,0.394
same,relative viability,[1]; first compound 2 µM,0.375
